This passage reports EC30 results from patent US10758534B2 (Vertex Pharmaceuticals Incorporated, priority 2014, dated 2020).

In this experiment the target is T1, F508del (Homo sapiens, UniProt P13569, DEL508-508).
T1 construct: expressed in transfected cells
T1 sequence (P13569 with tags, fused parts or gaps DEL508-508): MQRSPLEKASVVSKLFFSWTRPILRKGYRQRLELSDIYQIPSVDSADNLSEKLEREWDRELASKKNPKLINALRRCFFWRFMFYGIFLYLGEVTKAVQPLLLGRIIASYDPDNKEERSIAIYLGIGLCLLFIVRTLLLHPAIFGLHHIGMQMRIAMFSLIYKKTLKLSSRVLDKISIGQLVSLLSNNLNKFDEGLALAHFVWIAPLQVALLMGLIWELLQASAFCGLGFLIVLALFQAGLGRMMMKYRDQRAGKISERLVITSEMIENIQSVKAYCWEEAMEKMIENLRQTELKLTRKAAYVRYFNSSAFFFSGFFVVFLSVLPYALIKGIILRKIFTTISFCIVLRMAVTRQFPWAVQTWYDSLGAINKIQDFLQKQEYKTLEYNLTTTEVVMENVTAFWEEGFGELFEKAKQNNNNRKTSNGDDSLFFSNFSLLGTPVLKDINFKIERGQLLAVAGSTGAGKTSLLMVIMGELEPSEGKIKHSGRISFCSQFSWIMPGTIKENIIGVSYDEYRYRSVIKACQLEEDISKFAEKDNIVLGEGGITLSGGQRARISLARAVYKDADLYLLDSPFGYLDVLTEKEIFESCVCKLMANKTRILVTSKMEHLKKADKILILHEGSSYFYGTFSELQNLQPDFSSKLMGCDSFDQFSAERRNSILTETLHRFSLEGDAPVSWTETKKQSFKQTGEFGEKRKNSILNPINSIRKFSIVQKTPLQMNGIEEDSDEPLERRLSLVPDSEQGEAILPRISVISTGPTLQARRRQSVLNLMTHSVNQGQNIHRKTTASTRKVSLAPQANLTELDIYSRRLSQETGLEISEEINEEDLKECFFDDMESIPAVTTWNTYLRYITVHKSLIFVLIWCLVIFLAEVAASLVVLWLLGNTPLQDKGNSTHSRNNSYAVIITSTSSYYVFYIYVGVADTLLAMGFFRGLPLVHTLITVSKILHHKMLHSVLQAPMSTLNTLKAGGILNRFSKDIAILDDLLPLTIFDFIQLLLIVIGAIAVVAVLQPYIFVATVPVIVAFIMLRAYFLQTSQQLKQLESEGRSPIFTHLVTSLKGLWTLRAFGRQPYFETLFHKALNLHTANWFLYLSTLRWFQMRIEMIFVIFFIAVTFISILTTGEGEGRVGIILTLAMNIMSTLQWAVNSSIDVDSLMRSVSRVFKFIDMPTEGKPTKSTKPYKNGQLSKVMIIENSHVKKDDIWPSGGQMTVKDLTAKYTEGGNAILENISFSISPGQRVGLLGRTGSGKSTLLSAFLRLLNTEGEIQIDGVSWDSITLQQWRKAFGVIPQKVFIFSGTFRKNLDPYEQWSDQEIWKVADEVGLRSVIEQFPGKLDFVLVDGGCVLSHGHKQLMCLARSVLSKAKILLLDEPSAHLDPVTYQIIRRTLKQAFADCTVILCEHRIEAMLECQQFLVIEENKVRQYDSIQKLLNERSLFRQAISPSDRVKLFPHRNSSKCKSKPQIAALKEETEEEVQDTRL
The experiment can be described thus: Protocol 1: membrane potential optical assay (FLIPR III, voltage sensing dye), identification of potentiator compounds. In kind it is cell-based. The following applies: Table 3, compounds of Table 1. Summed up: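 NIH3T3 F508del cells, 27° C × 24 hrs; compound/DMSO pretreat → redistribution dye load → single forskolin addition with Cl⁻ gradient (gluconate-substituted bath, HEPES pH 7.4). FLIPR III membrane-potential fluorescence read.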
Turning to `Cc1cc(C)c(Oc2nc(-c3ccc4cn(C)nc4c3)ccc2C(=O)NS(=O)(=O)c2cccc(N)n2)c(C)c1` [Compound 1299, N-[(6-amino-2-pyridyl)sulfonyl]-6-(2-methylindazol-6-yl)-2-(2,4,6-trimethylphenoxy)pyridine-3-carboxamide], the EC30 result is “++ (“++” means between 3 uM and 10 uM)”.

With `CC(C)COc1cc(F)cc(-c2ccc(C(=O)NS(=O)(=O)c3cccc(N)n3)c(N3CC(C)CCC3C)n2)c1` (single isomer, unassigned) [Compound 1855, N-[(6-amino-2-pyridyl)sulfonyl]-2-(2,5-dimethyl-1-piperidyl)-6-(3-fluoro-5-isobutoxy-phenyl)pyridine-3-carboxamide], the EC30 result was “+++ (“+++” means <3 uM)”. Take `CCc1cccc(-c2ccc(C(=O)NS(=O)(=O)c3cccc(N)n3)c(Oc3c(C)cc(C)cc3C)n2)c1` [Compound 1118, N-[(6-amino-2-pyridyl)sulfonyl]-6-(3-ethylphenyl)-2-(2,4,6-trimethylphenoxy)pyridine-3-carboxamide]: the EC30 entry is on record as “+++ (“+++” means <3 uM)”. The same measure for `CC(C)Oc1ccc(-c2ccc(C(=O)NS(=O)(=O)c3cccc(N)n3)c(N3CCC(Oc4ccccc4)C3)n2)cn1` (stereo not drawn) [Compound 1092, N-[(6-amino-2-pyridyl)sulfonyl]-6-(6-isopropoxy-3-pyridyl)-2-(3-phenoxypyrrolidin-1-yl)pyridine-3-carboxamide]: “++ (“++” means between 3 uM and 10 uM)”; for `CC(C)(C)c1ccc(C(=O)NS(=O)(=O)c2ccc(N)cc2)c(NCc2ccccc2)n1` [Compound 1064, N-(4-aminophenyl)sulfonyl-2-(benzylamino)-6-tert-butyl-pyridine-3-carboxamide]: “+++ (“+++” means <3 uM)”; for `CCOc1cccc2c1CN(Cc1c(C)cc(C)cc1C)C2(C)C(=O)NS(=O)(=O)c1cccc(OC)c1` (stereo not drawn) [Compound 1470, 4-ethoxy-N-(3-methoxyphenyl)sulfonyl-1-methyl-2-[(2,4,6-trimethylphenyl)methyl]isoindoline-1-carboxamide]: “+++ (“+++” means <3 uM)”. Take `CC(C)COc1cc(F)cc(-c2ccc(C(=O)NS(=O)(=O)c3ccn[nH]3)c(N3C[C@H](C)C[C@@H](C)C3)n2)c1` [Compound 942, 2-[(3R,5R)-3,5-dimethyl-1-piperidyl]-6-(3-fluoro-5-isobutoxy-phenyl)-N-(1H-pyrazol-5-ylsulfonyl)pyridine-3-carboxamide]: the EC30 result was “+++ (“+++” means <3 uM)”.

As to `Cc1cc(C)c(Oc2nc(-c3ccc4[nH]ncc4c3)ccc2C(=O)NS(=O)(=O)c2cccc(N)n2)c(C)c1` [Compound 856, N-[(6-amino-2-pyridyl)sulfonyl]-6-(1H-indazol-5-yl)-2-(2,4,6-trimethylphenoxy)pyridine-3-carboxamide], the EC30 result is “++ (“++” means between 3 uM and 10 uM)”. As to `CC(C)CNc1cccc(-c2ccc(C(=O)NS(=O)(=O)c3cccc(N)n3)c(N3CC(C)CC3(C)C)n2)n1` (stereo not drawn) [Compound 1059, N-[(6-amino-2-pyridyl)sulfonyl]-6-[6-(isobutylamino)-2-pyridyl]-2-(2,2,4-trimethylpyrrolidin-1-yl)pyridine-3-carboxamide], the EC30 result was “+++ (“+++” means <3 uM)”. On to `Cc1cc(C)c(Oc2nc(-c3ccc(CN4CCOCC4)cc3)ccc2C(=O)NS(=O)(=O)c2cccc(N)n2)c(C)c1` [Compound 810, N-[(6-amino-2-pyridyl)sulfonyl]-6-[4-(morpholinomethyl)phenyl]-2-(2,4,6-trimethylphenoxy)pyridine-3-carboxamide], for which the EC30 result is “++ (“++” means between 3 uM and 10 uM)”. The same measure for `CCc1ccc(C(=O)NS(=O)(=O)c2cccc(N)n2)c(N2C[C@@H](C)CC2(C)C)n1` [Compound 1507, N-[(6-amino-2-pyridyl)sulfonyl]-6-ethyl-2-[(4S)-2,2,4-trimethylpyrrolidin-1-yl]pyridine-3-carboxamide]: “++ (“++” means between 3 uM and 10 uM)”; for `CCOc1cccc2c1CN(Cc1c(C)cc(C)cc1C)[C@]2(C)C(=O)NS(=O)(=O)c1cccc(N)n1` [Compound 1372, (1S)—N-[(6-amino-2-pyridyl)sulfonyl]-4-ethoxy-1-methyl-2-[(2,4,6-trimethylphenyl)methyl]isoindoline-1-carboxamide]: “+++ (“+++” means <3 uM)”. For the compound `C[C@@H]1CN(c2nc(-c3cccc(OCC(C)(C)C)n3)ccc2C(=O)NS(=O)(=O)c2cccc(N)n2)C(C)(C)C1` [Compound 1663, N-[(6-amino-2-pyridyl)sulfonyl]-6-[6-(2,2-dimethylpropoxy)-2-pyridyl]-2-[(4S)-2,2,4-trimethylpyrrolidin-1-yl]pyridine-3-carboxamide], the EC30 result is “+++ (“+++” means <3 uM)”.

For `CC1CN(c2nc(C(C)(C)C)c(C3=CCC4(CC3)OCCO4)cc2C(=O)NS(=O)(=O)c2cccc(N)n2)C(C)(C)C1` (stereo not drawn) [Compound 1459, N-[(6-amino-2-pyridyl)sulfonyl]-6-tert-butyl-5-(1,4-dioxaspiro[4.5]dec-8-en-8-yl)-2-(2,2,4-trimethylpyrrolidin-1-yl)pyridine-3-carboxamide], the EC30 result is on record as “+++ (“+++” means <3 uM)”. The entry for `Cc1cc(C)c(Oc2nc(C3=CCC4(CC3)OCCO4)ccc2C(=O)NS(=O)(=O)c2cccc(N)n2)c(C)c1` [Compound 1558, N-[(6-amino-2-pyridyl)sulfonyl]-6-(1,4-dioxaspiro[4.5]dec-8-en-8-yl)-2-(2,4,6-trimethylphenoxy)pyridine-3-carboxamide] is “++ (“++” means between 3 uM and 10 uM)”; for `CC1CN(c2ncccc2C(=O)NS(=O)(=O)c2cccc(Nc3ccc4ncsc4c3)n2)C(C)(C)C1` (stereo not drawn) [Compound 1775, N—[[6-(1,3-benzothiazol-6-ylamino)-2-pyridyl]sulfonyl]-2-(2,24-trimethylpyrrolidin-1-yl)pyridine-3-carboxamide] it is “+++ (“+++” means <3 uM)”; for `CCOc1cc(-c2ccc(C(=O)NS(=O)(=O)c3cccc(N)n3)c(N3C[C@@H](C)CC3(C)C)n2)cc(C(F)(F)F)c1` [Compound 1569, N-[(6-amino-2-pyridyl)sulfonyl]-6-[3-ethoxy-5-(trifluoromethyl)phenyl]-2-[(4S)-2,2,4-trimethylpyrrolidin-1-yl]pyridine-3-carboxamide] it is “+++ (“+++” means <3 uM)”. Regarding `CC(C)COc1cc(F)cc(-c2ccc(C(=O)NS(=O)(=O)c3cccc(N)n3)c(OC(C)C3CCC3)n2)c1` (stereo not drawn) [Compound 1238, N-[(6-amino-2-pyridyl)sulfonyl]-2-(1-cyclobutylethoxy)-6-(3-fluoro-5-isobutoxy-phenyl)pyridine-3-carboxamide], the EC30 entry is “+++ (“+++” means <3 uM)”. Regarding `C[C@@H]1CN(c2nc(-c3cccc(F)c3)ccc2C(=O)NS(=O)(=O)c2cccnc2N)C(C)(C)C1` [Compound 1873, N-[(2-amino-3-pyridyl)sulfonyl]-6-(3-fluorophenyl)-2-[(4S)-2,2,4-trimethylpyrrolidin-1-yl]pyridine-3-carboxamide], the EC30 result was “+++ (“+++” means <3 uM)”. The same measure for `CC(C)COc1cc(F)cc(-c2ccc(C(=O)NS(=O)(=O)c3cccc(N)n3)c(N3CCCC3c3ccccc3)n2)c1` (stereo not drawn) [Compound 859, N-[(6-amino-2-pyridyl)sulfonyl]-6-(3-fluoro-5-isobutoxy-phenyl)-2-(2-phenylpyrrolidin-1-yl)pyridine-3-carboxamide]: “+++ (“+++” means <3 uM)”; for `C[C@@H]1CN(c2nc(-c3ccc4ccccc4c3)ccc2C(=O)NS(=O)(=O)c2ccc[nH]c2=O)C(C)(C)C1` [Compound 1803, 6-(2-naphthyl)-N-[(2-oxo-1H-pyridin-3-yl)sulfonyl]-2-[(4S)-2,2,4-trimethylpyrrolidin-1-yl]pyridine-3-carboxamide]: “+++ (“+++” means <3 uM)”. The same measure for `CC(C)COc1cccc(-c2ccc(C(=O)NS(=O)(=O)c3ccc[nH]c3=O)c(N3CCC(C)CC3)n2)c1` [Compound 958, 6-(3-isobutoxyphenyl)-2-(4-methyl-1-piperidyl)-N-[(2-oxo-1H-pyridin-3-yl)sulfonyl]pyridine-3-carboxamide]: “+++ (“+++” means <3 uM)”; for `CCOc1cccc2c1CN(Cc1c(C)cc(C)cc1C)C2(C)C(=O)NS(=O)(=O)c1ccccc1O` (stereo not drawn) [Compound 1509, 4-ethoxy-N-(2-hydroxyphenyl)sulfonyl-1-methyl-2-[(2,4,6-trimethylphenyl)methyl]isoindoline-1-carboxamide]: “+++ (“+++” means <3 uM)”. Regarding `CCOc1ccc(-c2ccc(C(=O)NS(=O)(=O)c3cccc(N)n3)c(Oc3c(C)cc(C)cc3C)n2)cc1OC` [Compound 1268, N-[(6-amino-2-pyridyl)sulfonyl]-6-(4-ethoxy-3-methoxy-phenyl)-2-(2,4,6-trimethylphenoxy)pyridine-3-carboxamide], the EC30 result is “+++ (“+++” means <3 uM)”. With `C[C@@H]1CN(c2nc(C(C)(C)C)c(/C=C/C(C)(C)C)cc2C(=O)NS(=O)(=O)c2cccc(N)n2)C(C)(C)C1` [Compound 1613, N-[(6-amino-2-pyridyl)sulfonyl]-6-tert-butyl-5-[(E)-3,3-dimethylbut-1-enyl]-2-[(4S)-2,2,4-trimethylpyrrolidin-1-yl]pyridine-3-carboxamide], the EC30 entry is on record as “+++ (“+++” means <3 uM)”. As to `Cc1cc(C)c(C(C)N2Cc3ccccc3C2C(=O)NS(=O)(=O)c2cccc(N)n2)c(C)c1` (stereo not drawn) [Compound 1186, N-[(6-amino-2-pyridyl)sulfonyl]-2-[1-(2,4,6-trimethylphenyl)ethyl]isoindoline-1-carboxamide], the EC30 result is given as “+++ (“+++” means <3 uM)”. The same measure for `CC(C)CC/C=C/c1cc(C(=O)NS(=O)(=O)c2cccc(N)n2)c(N2C[C@@H](C)CC2(C)C)nc1C(C)(C)C` [Compound 1682, N-[(6-amino-2-pyridyl)sulfonyl]-6-tert-butyl-5-[(E)-5-methylhex-1-enyl]-2-[(4S)-2,2,4-trimethylpyrrolidin-1-yl]pyridine-3-carboxamide]: “+++ (“+++” means <3 uM)”.
